From the supplement of paper PMC10307832

Columns and labels:
Assay in all cases: relative viability (nuclei count vs DMSO), 5 days (fraction); higher = more cells survive
EPLC-272H = test system: EPLC-272H
Method in brief: (§1)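 One day after seeding in 1536-well plates, lung cancer cell lines were dosed by pin tool. Dosing was either single-drug or a fixed anchor-drug dose plus five library-drug doses (not always all listed) in √10 steps. After 5 days, nuclei were stained in one fix-and-stain step and counted on 4× images, and relative viability is the nuclei count of treated wells over that of vehicle wells, given as the median of duplicate plates.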

NCI-H2085 = test system: NCI-H2085
Method in brief: as §1

UMC-11 = test system: UMC-11
Method in brief: as §1

SW 1573 = test system: SW 1573
Method in brief: as §1

HARA = test system: HARA
Method in brief: as §1

LOU-NH91 = test system: LOU-NH91
Method in brief: as §1

NCI-H2009 = test system: NCI-H2009
Method in brief: as §1

NCI-H650 = test system: NCI-H650
Method in brief: as §1

SW 900 = test system: SW 900
Method in brief: as §1

LC-2-ad = test system: LC-2-ad
Method in brief: as §1

NCI-H1651 = test system: NCI-H1651
Method in brief: as §1

NCI-H23 = test system: NCI-H23
Method in brief: as §1

H3255 = test system: H3255
Method in brief: as §1

PC-3 [JPC-3] = test system: PC-3 [JPC-3]
Method in brief: as §1

NCI-H838 = test system: NCI-H838
Method in brief: as §1

NCI-H2023 = test system: NCI-H2023
Method in brief: as §1

NCI-H1975 = test system: NCI-H1975
Method in brief: as §1

NCI-H441 = test system: NCI-H441
Method in brief: as §1

NCI-H2087 = test system: NCI-H2087
Method in brief: as §1

NCI-H727 = test system: NCI-H727
Method in brief: as §1

NCI-H2170 = test system: NCI-H2170
Method in brief: as §1

NCI-H2228 = test system: NCI-H2228
Method in brief: as §1

NCI-H1650 = test system: NCI-H1650
Method in brief: as §1

Work on `CN1CCN(CCOc2cc(OC3CCOCC3)c3c(Nc4c(Cl)ccc5c4OCO5)ncnc3c2)CC1` [Saracatinib] + CC(=O)c1c(C)c2cnc(Nc3ccc(N4CCNCC4)cn3)nc2n(C2CCCC2)c1=O [Palbociclib] (partner 0.5 µM) yielded a relative viability (EPLC-272H; first compound 0.02 µM) of 0.342, a relative viability (EPLC-272H; first compound 0.2 µM) of 0.287 and a relative viability (EPLC-272H; first compound 0.6325 µM) of 0.413. It also gave a relative viability (EPLC-272H; first compound 2 µM) of 0.305, a relative viability (NCI-H2085; first compound 0.02 µM) of 0.518 and a relative viability (NCI-H2085; first compound 0.2 µM) of 0.448. For the same compound, the relative viability (NCI-H2085; first compound 0.6325 µM) was 0.499, the relative viability (NCI-H2085; first compound 2 µM) was 0.48 and the relative viability (UMC-11; first compound 0.02 µM) was 0.339. For the same compound, the relative viability (UMC-11; first compound 0.2 µM) was 0.374, the relative viability (UMC-11; first compound 0.6325 µM) was 0.38 and the relative viability (UMC-11; first compound 2 µM) was 0.309. The relative viability (SW 1573; first compound 0.02 µM) was 0.416, the relative viability (SW 1573; first compound 0.2 µM) was 0.399 and the relative viability (SW 1573; first compound 0.6325 µM) was 0.382. It also gave a relative viability (SW 1573; first compound 2 µM) of 0.28, a relative viability (HARA; first compound 0.02 µM) of 0.234 and a relative viability (HARA; first compound 0.2 µM) of 0.208. It also gave a relative viability (HARA; first compound 0.6325 µM) of 0.269, a relative viability (HARA; first compound 2 µM) of 0.161 and a relative viability (LOU-NH91; first compound 0.02 µM) of 0.487. The relative viability (LOU-NH91; first compound 0.2 µM) was 0.551, the relative viability (LOU-NH91; first compound 0.6325 µM) was 0.569 and the relative viability (LOU-NH91; first compound 2 µM) was 0.49. It also gave a relative viability (NCI-H2009; first compound 0.02 µM) of 0.261, a relative viability (NCI-H2009; first compound 0.2 µM) of 0.136 and a relative viability (NCI-H2009; first compound 0.6325 µM) of 0.201. For the same compound, the relative viability (NCI-H2009; first compound 2 µM) was 0.136, the relative viability (NCI-H650; first compound 0.02 µM) was 0.336 and the relative viability (NCI-H650; first compound 0.2 µM) was 0.314. It also gave a relative viability (NCI-H650; first compound 0.6325 µM) of 0.33, a relative viability (NCI-H650; first compound 2 µM) of 0.307 and a relative viability (SW 900; first compound 0.02 µM) of 0.548. The relative viability (SW 900; first compound 0.2 µM) was 0.432, the relative viability (SW 900; first compound 0.6325 µM) was 0.383 and the relative viability (SW 900; first compound 2 µM) was 0.293. It also gave a relative viability (LC-2-ad; first compound 0.02 µM) of 0.571, a relative viability (LC-2-ad; first compound 0.2 µM) of 0.448 and a relative viability (LC-2-ad; first compound 0.6325 µM) of 0.504. It also gave a relative viability (LC-2-ad; first compound 2 µM) of 0.434, a relative viability (NCI-H1651; first compound 0.02 µM) of 0.587 and a relative viability (NCI-H1651; first compound 0.2 µM) of 0.478. It also gave a relative viability (NCI-H1651; first compound 0.6325 µM) of 0.642, a relative viability (NCI-H1651; first compound 2 µM) of 0.567 and a relative viability (NCI-H23; first compound 0.02 µM) of 0.526. It also gave a relative viability (NCI-H23; first compound 0.6325 µM) of 0.573, a relative viability (NCI-H23; first compound 2 µM) of 0.403 and a relative viability (H3255; first compound 0.02 µM) of 0.329. It also gave a relative viability (H3255; first compound 0.2 µM) of 0.31, a relative viability (H3255; first compound 0.6325 µM) of 0.336 and a relative viability (H3255; first compound 2 µM) of 0.297. It also gave a relative viability (PC-3 [JPC-3]; first compound 0.02 µM) of 0.568, a relative viability (PC-3 [JPC-3]; first compound 0.2 µM) of 0.507 and a relative viability (PC-3 [JPC-3]; first compound 0.6325 µM) of 0.532. It also gave a relative viability (PC-3 [JPC-3]; first compound 2 µM) of 0.561, a relative viability (NCI-H838; first compound 0.02 µM) of 0.224 and a relative viability (NCI-H838; first compound 0.2 µM) of 0.215. It also gave a relative viability (NCI-H838; first compound 0.6325 µM) of 0.216, a relative viability (NCI-H838; first compound 2 µM) of 0.182 and a relative viability (NCI-H2023; first compound 0.02 µM) of 0.379. For the same compound, the relative viability (NCI-H2023; first compound 0.2 µM) was 0.31, the relative viability (NCI-H2023; first compound 0.6325 µM) was 0.282 and the relative viability (NCI-H2023; first compound 2 µM) was 0.19. For the same compound, the relative viability (NCI-H1975; first compound 0.02 µM) was 0.584, the relative viability (NCI-H1975; first compound 0.2 µM) was 0.603 and the relative viability (NCI-H1975; first compound 0.6325 µM) was 0.718. For the same compound, the relative viability (NCI-H1975; first compound 2 µM) was 0.441, the relative viability (NCI-H441; first compound 0.02 µM) was 0.243 and the relative viability (NCI-H441; first compound 0.2 µM) was 0.196. For the same compound, the relative viability (NCI-H441; first compound 0.6325 µM) was 0.199, the relative viability (NCI-H441; first compound 2 µM) was 0.182 and the relative viability (NCI-H2087; first compound 0.02 µM) was 0.252. The relative viability (NCI-H2087; first compound 0.2 µM) was 0.255, the relative viability (NCI-H2087; first compound 0.6325 µM) was 0.303 and the relative viability (NCI-H2087; first compound 2 µM) was 0.179. For the same compound, the relative viability (NCI-H727; first compound 0.02 µM) was 0.604, the relative viability (NCI-H727; first compound 0.2 µM) was 0.692 and the relative viability (NCI-H727; first compound 0.6325 µM) was 0.674. For the same compound, the relative viability (NCI-H727; first compound 2 µM) was 0.551, the relative viability (NCI-H2170; first compound 0.02 µM) was 0.39 and the relative viability (NCI-H2170; first compound 0.2 µM) was 0.39. The relative viability (NCI-H2170; first compound 0.6325 µM) was 0.441, the relative viability (NCI-H2170; first compound 2 µM) was 0.354 and the relative viability (NCI-H2228; first compound 0.02 µM) was 0.955. For the same compound, the relative viability (NCI-H2228; first compound 0.2 µM) was 0.649, the relative viability (NCI-H2228; first compound 0.6325 µM) was 0.805 and the relative viability (NCI-H2228; first compound 2 µM) was 0.557. For the same compound, the relative viability (NCI-H1650; first compound 0.02 µM) was 0.334, the relative viability (NCI-H1650; first compound 0.2 µM) was 0.28 and the relative viability (NCI-H1650; first compound 0.6325 µM) was 0.267. For the same compound, the relative viability (NCI-H1650; first compound 2 µM) was 0.159.
